Article PMC3306445 (Journal of Medicinal Chemistry, 2012)

Experiments:
TMK = settings: high binding affinity due to LID loop closure; cited from earlier work
[1] = target: Pseudomonas aeruginosa thymidylate monophosphate kinase (TMK) (Pseudomonas aeruginosa, UniProt Q9HZN8); experiment: Thymidylate kinase kinetic assay; assay type: biochemical; settings: for fold decreased inhibition compared with 17: PaTMK IC50 compared with 17; for fold improved inhibition over 1: PaTMK IC50 compared with 1; for fold improved potency over 19: PaTMK IC50 compared with secondary amide 19
Sequence of Pseudomonas aeruginosa thymidylate monophosphate kinase (TMK) (Q9HZN8 whole entry): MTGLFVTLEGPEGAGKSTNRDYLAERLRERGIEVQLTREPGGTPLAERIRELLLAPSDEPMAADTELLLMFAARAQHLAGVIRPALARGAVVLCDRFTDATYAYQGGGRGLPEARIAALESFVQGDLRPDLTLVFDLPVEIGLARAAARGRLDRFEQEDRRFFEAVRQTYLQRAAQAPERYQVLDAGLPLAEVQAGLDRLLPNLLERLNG

Cc1cn([C@H]2C[C@H](O)[C@@H](COP(=O)(O)OP(=O)(O)OP(=O)(O)OP(=O)(O)OP(=O)(O)OC[C@H]3O[C@@H](n4cnc5c(N)ncnc54)[C@H](O)[C@@H]3O)O2)c(=O)[nH]c1=O [TP5A, P1-(5′-adenosyl)-P5-(5′-thymidyl)pentaphosphate]
Kd (TMK): 20 nM

CN(C)C(=O)c1cccc(-c2cnc3[nH]c(=O)n(C)c3c2)c1 [Compound 20, N,N-Dimethyl-3-(1-methyl-2-oxo-2,3-dihydro-1H-imidazo[4,5-b]pyridin-6-yl)benzamide]
fold decreased inhibition compared with 17 [1]: 240 fold

Cn1c(=O)[nH]c2ncc(-c3cccc(C#N)c3)cc21 [Compound 14, 3-(1-Methyl-2-oxo-2,3-dihydro-1H-imidazo[4,5-b]pyridin-6-yl)benzonitrile]
PaTMK inhibition (in words) [1]: inactive

Cn1c(=O)[nH]c2ncc(-c3cccc(C(N)=O)c3)cc21 [Compound 17, 3-(1-Methyl-2-oxo-2,3-dihydro-1H-imidazo[4,5-b]pyridin-6-yl)benzamide]
fold improved inhibition over 1 [1]: 130 fold
fold increase of PaTMK inhibition over 26 ([1]; compared with 26 (p-carboxamide)): ca. 1000 fold

CNC(=O)c1cccc(-c2cnc3[nH]c(=O)n(C)c3c2)c1 [Compound 19, N-Methyl-3-(1-methyl-2-oxo-2,3-dihydro-1H-imidazo[4,5-b]pyridin-6-yl)benzamide]
fold improved inhibition over 1 [1]: 30 fold
fold decreased inhibition compared with 17 [1]: 5 fold

Cn1c(=O)[nH]c2ncc(-c3cccc(C(=O)NCC(=O)O)c3)cc21 [Compound 31, 2-(3-(1-Methyl-2-oxo-2,3-dihydro-1H-imidazo[4,5-b]pyridin-6-yl)benzamido)acetic acid]
fold improved potency over 19 [1]: about 2.5 fold

Cn1c(=O)[nH]c2ncc(-c3cccc(C(=O)NCCCc4ccc(C(F)(F)F)cc4)c3)cc21 [Compound 57, 3-(1-Methyl-2-oxo-2,3-dihydro-1H-imidazo[4,5-b]pyridin-6-yl)-N-(3-(4-(trifluoromethyl)phenyl)propyl)benzamide]
fold improved potency over 19 [1]: ca. 18 fold

Cn1c(=O)[nH]c2ncc(-c3cccc(C(=O)NCC(Cc4ccccc4)C(=O)O)c3)cc21 (centres unmarked) [Compound 53, 2-Benzyl-3-(3-(1-methyl-2-oxo-2,3-dihydro-1H-imidazo[4,5-b]pyridin-6-yl)benzamido)propanoic acid]
fold improved potency over 19 [1]: ca. 18 fold

Cn1c(=O)[nH]c2ncc(-c3cccc(C(=O)NCC(N)=O)c3)cc21 [Compound 30, N-(2-Amino-2-oxoethyl)-3-(1-methyl-2-oxo-2,3-dihydro-1H-imidazo[4,5-b]pyridin-6-yl)benzamide]
fold improved potency over 19 [1]: about 2.5 fold

Cn1c(=O)[nH]c2ncc(-c3cccc(C(=O)NCCCc4ccc(F)cc4)c3)cc21 [Compound 47, N-(3-(4-Fluorophenyl)propyl)-3-(1-methyl-2-oxo-2,3-dihydro-1H-imidazo[4,5-b]pyridin-6-yl)benzamide]
fold improved potency over 19 [1]: ca. 18 fold

Cl.Cn1c(=O)[nH]c2ncc(-c3cccc(CN)c3)cc21 [Compound 15, 6-(3-(Aminomethyl)phenyl)-1-methyl-1H-imidazo[4,5-b]pyridin-2(3H)-one hydrochloride]
PaTMK inhibition (in words) [1]: lack of activity

Cn1c(=O)[nH]c2ncc(-c3cccc(C(=O)NCCCc4c[nH]c5ccccc45)c3)cc21 [Compound 48, N-(3-(1H-Indol-3-yl)propyl)-3-(1-methyl-2-oxo-2,3-dihydro-1H-imidazo[4,5-b]pyridin-6-yl)benzamide]
fold improved potency over 19 [1]: ca. 18 fold
